Each block holds one molecule with its values, some of them ahead of it.
Experiments:
[1] = Experimental: The partition coefficient is determined by means of various methods according to the value.
[2] = DW10 Na soap IDID test (clean-up), exhaust gas temperatures on cold start; conditions: CU, 70 mg/kg active compound
Experimental: 3. IDID Test—Determination of Additive Effect on Internal Injector Deposits
The formation of deposits within the injector was characterized by the deviations in the exhaust gas temperatures of the cylinders at the cylinder outlet on cold starting of the DW10 engine.
To promote the formation of deposits, 1 mg/l of sodium salt of an organic acid, 20 mg/l of dodecenylsuccinic acid and 10 mg/l of water were added to the fuel.
The test is conducted as a dirty-up clean-up test (DU-CU).
Thereafter, the CU fuel is used to start the CU without deinstalling and cleaning the injectors. After the CU run over 8 h, after a rest phase of at least eight hours, a cold start of the engine is conducted, followed by idling for 10 minutes. The evaluation is effected by the comparison of the temperature profiles for the individual cylinders after the cold start in the DU and CU runs.
The IDID test indicates the formation of internal deposits in the injector. The characteristic used in this test is the exhaust gas temperature of the individual cylinders. In an injector system without IDIDs, the exhaust gas temperatures of the cylinders increase homogeneously.
The temperature sensors are beyond the cylinder head outlet in the exhaust gas manifold. Significant deviation of the individual cylinder temperatures (e.g. >20° C.) indicates the presence of internal injector deposits (IDIDs).
The tests (DU and CU) are each conducted with run time 8 h. The one-hour test cycle from CEC F-098-08 (see FIG. 1) is run through 8 times in each case. In the event of deviations of the individual cylinder temperatures of greater than 45° C. from the mean for all 4 cylinders, the test is stopped early.
To examine the influence of the additives on the performance of direct injection diesel engines, as a further test method, the IDID engine test was conducted, in which the exhaust gas temperatures in the cylinders at the cylinder outlet were determined on cold starting of the DW10 engine. (cf. method description above)
A DW10 direct injection diesel engine with common rail system from the manufacturer Peugeot was used, which was employed in the CEC F-098-08 test method. The method that was used derived from CEC F-098-08, with the difference that, rather than 1 ppm of Zn for artificial inducement of formation of deposits, 1 ppm by weight of sodium naphthenate and 20 ppm by weight of dodecenylsuccinic acid were used in each case. The fuel used was a commercial B7 diesel fuel according to EN 590 from Aral. The test duration is shortened to 8 hours compared to method CEC F-098-08. After respective DU and CU phases, the engine is cooled and then started at idling speed.
II. CU (clean-up) After the DU phase, the engine is operated with additized fuel without cleaning the injectors beforehand.
Again, the exhaust gas temperatures of the 4 cylinders (“C1” to “C4”) were measured at each of the cylinder outlets after 0 minutes (“ϑ0”) and after 5 minutes (“ϑ5”). The results of the exhaust gas temperature measurements with average values (“Δ”) and the greatest differences from Δ in the downward (“−”) and upward (“+”) directions for the two test runs are summarized in the following overview: […]

[3] = DW10 Na power-loss test (keep-clean); conditions: 8 h, 1 ppm Na + 20 ppm dodecenylsuccinic acid and 150 ppm additive
Experimental: To examine the efficacy of the inventive compounds against power loss caused by metals such as Na, K and others (and not by Zn as described above), an IDID engine test was used. During the run, the power is measured to CEC F-098-08.

[4] = DW10 Zn engine test (clean-up), engine power; conditions: 25 mg/kg active compound
Experimental: 2.2. DW10 Dirty-Up Clean-Up (DU-CU)
The DU-CU test is based on CEC test procedure F-098-08 Issue 5. The procedure is described in Issue 5 of the test procedure (CEC F-98-08). This is done using the same test setup and the PEUGEOT DW10 engine type.
The DU-CU test consists of two individual tests which are run in succession. The first test serves to form deposits (DU), the second to remove the deposits (CU). After the DU, the power loss is determined. After the end of the DU run, the engine is not operated for at least 8 hours and is cooled to ambient temperature. Thereafter, the CU fuel is used to start the CU without deinstalling and cleaning the injectors. The deposits and power loss ideally decline over the course of the CU test.
The initial power P0,cu [kW] is calculated from the measured torque at full load 4000/min directly after the test has started and the engine has run hot in the CU. The procedure is likewise described in Issue 5 of the test procedure.
The final power (Pend,cu) is determined in the 12th cycle in stage 12 (see table, FIG. 2). Here too, the operation point is full load 4000/min. Pend,cu [kW] is calculated from the torque measured.
The test was conducted with a Peugeot DW10 engine, which is used in CEC F-98-08 procedure, except that more severe conditions were used in the dirty-up part:
I. Dirty-up: the more severe conditions allow distinctly faster formation of injector deposits than under standard CEC F-98-08 conditions: The engine was operated at full load (4000 rpm) with EN590 B7 Aral, unadditized, containing 3 mg/kg Zn, for 4 h.

[5] = XUD9 engine test (keep clean), flow restriction, CEC F-23-01; conditions: 0.1 mm needle stroke, Aral EN590 B7 fuel
Description: 1. XUD9 Test—Determination of Flow Restriction
The procedure was according to the standard provisions of CEC F-23-01.
Test according to above procedure CEC F-23-01 in Peugeot XUD9 engine.

[6] = Storage stability of formulations at −20° C.; type: physicochemical
Experimental: The following formulations were tested for storage stability at −20° C.: […]
a) 1:5 Dilution in Solvent Naphtha (5 Parts):
b) 1:5:1 Dilution in 2-Ethylhexyl Nitrate (5 Parts) and Solvent Naphtha (1 Part)

[7] = Motor oil compatibility to standard DGMK 531 1-A (filtration time); conditions: for filtration time: 10 g additive + 10 g motor oil, 90° C. three days, 500 ml EN590 B7 diesel, 0.8 μm membrane filter, 200 mbar; for filterability / motor oil compatibility pass/fail: DGMK 531 1-A
Experimental: Determination to standard DGMK 531 1-A with EN590 B7 fuel from Aral, unadditized, and Wintershall Multi-Rekord Top 15W-40 motor oil.
10 g in each case of motor oil and 10 g of the additive to be tested are weighed into a 500 ml Erlenmeyer flask and homogenized. The flask containing the mixture is loosely sealed with a glass stopper and conditioned in a drying cabinet at a temperature of 90±3° C. for three days. After the conditioning, the sample is cooled in a fume hood at room temperature for one hour. The mixture is then made up with 500 ml of diesel fuel and mixed thoroughly. A membrane filter of diameter 50 mm and pore size 0.8 μm is inserted into the filtration apparatus. Mixture is filtered through the membrane filter with the aid of a reduced pressure of 200 mbar. The filtration time is measured.

[8] = 1:5:1 dilution in 2-ethylhexyl nitrate (5 parts) and Solvent Naphtha (1 part)
[9] = 1:5 dilution in Solvent Naphtha (5 parts)

- partition coefficient log Pow [1]: 2.9
Molecule: CCCCC(CC)CO (stereo not drawn) [2-ethylhexanol]

- partition coefficient log Pow [1]: 1.3
Molecule: CCCCCO [pentanol]

- storage stability observation [6, 8]: clear liquid after 14 days
- storage stability observation [6, 9]: clear liquid after 60 days
- filtration time [7]: 114 s
- filterability [7]: good filterability
- motor oil compatibility pass/fail [7]: pass
Molecule: C12/14-NMe3-2-Propylheptyl Oxalate [Inventive example 1]
- average exhaust gas temperature (Δ) [2]: 77 °C
- evaluation of IDID clean-up [2]: the IDIDs formed were removed
- greatest difference from Δ in the downward direction [2]: −8 °C
- greatest difference from Δ in the upward direction [2]: +5 °C
- exhaust gas temperature cylinder C1 ([2]; after 0 minutes (ϑ0)): C1: 28 °C
- exhaust gas temperature cylinder C2 ([2]; after 0 minutes (ϑ0)): C2: 27 °C
- exhaust gas temperature cylinder C3 ([2]; after 0 minutes (ϑ0)): C3: 27 °C
- exhaust gas temperature cylinder C4 ([2]; after 0 minutes (ϑ0)): C4: 26 °C
- exhaust gas temperature cylinder C1 ([2]; after 5 minutes (ϑ5)): C1: 78 °C
- exhaust gas temperature cylinder C2 ([2]; after 5 minutes (ϑ5)): C2: 82 °C
- exhaust gas temperature cylinder C3 ([2]; after 5 minutes (ϑ5)): C3: 77 °C
- exhaust gas temperature cylinder C4 ([2]; after 5 minutes (ϑ5)): C4: 69 °C
- Change in power in the test [3]: +0.2%
- Engine power after the test [3]: 96.6 kW
- Engine power before the test [3]: 96.4 kW
- Engine power on commencement of clean-up test ([4]; 1 ppm Zn in EN590 B7, after dirty-up): 90.2 kW
- Engine power after engine running for 3 h ([4]; 1 ppm Zn in EN590 B7, clean-up): 97.7 kW
- Engine power until the end of the clean-up test ([4]; 1 ppm Zn in EN590 B7, clean-up lasting 8 h): 97.7 kW
- Flow restriction ([5]; dosage 24 mg/kg): 46.6%
- Flow restriction ([5]; dosage 36 mg/kg): 14.5%
- Flow restriction ([5]; dosage 48 mg/kg): 4.5%

Molecule: C12/14-NMe3-Methyl Oxalate [Comparative example 1, reference compound]
- storage stability observation [6, 8]: solidification after 1 day
- storage stability observation [6, 9]: solidification after 44 days
- filtration time [7]: > 300 s
- filterability [7]: very poor filterability
- motor oil compatibility pass/fail [7]: fail
